The record followed here is patent US20040063729A1, “Triazolopyrimidines” (priority 2000, published 2004).

The test system of data set [1] is Kidney beans (variety:Serina). Kind of data set: Phytotoxicity tested at the same time in the foliar spray test. It is filed as in vivo. Conditions: active compound concentration of 500 ppm; foliar spray on kidney beans. Here is the method:
Kidney beans (variety:Serina) were cultivated in plastic pots each having a diameter of 6 cm. The previously prepared solution of the prescribed concentration of active compound was sprayed over the plants in the 1 leaf stage at a rate of 20 ml per pot. One day after spraying, a gel obtained by mixing a suspension of spores of artificially cultured Botrytis cinera and PDA medium was added dropwise to the removed first leaf for infection in a plastic box having a size of 20 while maintaining humidity. 5 days after the inoculation, the infection rate per pot was classified and evaluated according to the following standard, and the control value (%) was calculated. Phytotoxicity was tested at the same time. This test is an average of the results of 3 replications. The evaluation of the infection rate and the calculation method of the control value were conducted as follows: […]

Turning to `Fc1ccc(F)c(Cc2c(Cl)nc3ncnn3c2Cl)c1F` [I-11], in data set [1], the Phytotoxicity result is recorded as “No phytotoxicity”.
On the same count and under the same terms, as for `Clc1nc2ncnn2c(Cl)c1Cc1ccccc1` [I-110], the entry is “No phytotoxicity”; as for `FC(F)(F)Oc1ccc(Cc2c(Cl)nc3ncnn3c2Cl)cc1` [I-104], “No phytotoxicity”; as for `Fc1cc(F)c(Cc2c(Cl)nc3ncnn3c2Cl)c(F)c1` [I-20], “No phytotoxicity”.
Still for that read-out and setting: as for `Cc1cccc(Cc2c(Cl)nc3ncnn3c2Cl)c1` [I-75], the entry is “No phytotoxicity”; as for `Cc1ccc(Cc2c(Cl)nc3ncnn3c2Cl)cc1` [I-94], “No phytotoxicity”.
Still for that read-out and setting: as for `CC(c1ccccc1)c1c(Cl)nc2ncnn2c1Cl` (stereo not shown) [I-112], the entry is “No phytotoxicity”.
As for `Clc1ccc(Cc2c(Cl)nc3ncnn3c2Cl)cc1` [I-95, 5,7-dichloro-6-(4-chlorobenzyl)[1,2,4]triazolo[1,5-a]pyrimidine], the melting point (in general, the temperature, or range, at which the solid turns liquid) fell in the range of 165 to 167 °C. The Phytotoxicity entry in data set [1] is recorded as “No phytotoxicity”.
For the molecule `FC(F)(F)c1cccc(Cc2c(Cl)nc3ncnn3c2Cl)c1` [I-73], the Phytotoxicity result in data set [1] was “No phytotoxicity”.
With `Clc1c(Cc2ccccc2)cnc2ncnn12` [I-111, 6-benzyl-7-chloro[1,2,4]triazolo[1,5-a]pyrimidine], the melting point lay within 123 to 127 °C.
For the molecule `Clc1ccc(Cc2cnc3ncnn3c2Cl)cc1Cl` [I-146], in data set [1], the Phytotoxicity result is on record as “No phytotoxicity”.
Consider `Fc1cc(F)c(Cc2c(Cl)nc3ncnn3c2Cl)cc1F` [I-18], for which the Phytotoxicity result in data set [1] is “No phytotoxicity”.
Regarding `Fc1ccc(Cc2c(Cl)nc3ncnn3c2Cl)c(F)c1F` [I-6], in data set [1], the Phytotoxicity entry is “No phytotoxicity”.
`Clc1cccc(Cc2c(Cl)nc3ncnn3c2Cl)c1` [I-76]: in data set [1], the Phytotoxicity result is recorded as “No phytotoxicity”.
`Clc1cccc(Cc2cnc3ncnn3c2Cl)c1Cl` [I-142]: in data set [1], the Phytotoxicity entry is recorded as “No phytotoxicity”.
